In patent publication US20250042926A1, “THERAPEUTIC COMPOUNDS FOR HIV” (priority 2023, published 2025):

Assay type: physicochemical
Conditions: kinetic solubility from DMSO stock, 1.0% DMSO, 24-hour incubation at ambient temperature, filtrate quantified by CLND
Procedure: 2. Kinetic Solubility Analysis (CLND: Total Chemiluminescent Nitrogen Determination)
The final DMSO Concentration is 1.0% and maximum theoretical compound concentration is […] (assuming stock concentration of 10 mM). The filter plate is sealed. Following 24-hour incubation at ambient temperature (21.7-23.8° C.), the samples are vacuum filtered, and the filtrates are collected in a 96 well polypropylene plate for analysis. The collection plate is sealed for analysis.
Filtrates are injected into the nitrogen detector for quantification on Analiza's Automated Discovery Workstation. The equimolar nitrogen response of the detector is calibrated using standards which span the dynamic range of the instrument from 0.08 to 4500 μg/ml nitrogen. The filtrates are quantified with respect to this calibration curve. The calculated solubility values are corrected for background nitrogen present in the DMSO, and the media used to prepare the samples. The 1×PBS buffer (pH 7.4) is prepared by adding 50 mL of phosphate buffered saline solution 10×, PBS (Fisher Bioreagent part number BP399-500) to approximately 450 mL HPLC grade H2O. The volume of the solution is then adjusted to 500 mL for a total dilution factor of 1:10 and a final PBS concentration of 1X.

Cc1cc(CC(=O)N[C@@H](CC(=O)O)C(=O)O)c(C(C)(C)CC(=O)N(c2nn(C)c3c(-n4c([C@H](Cc5cc(F)cc(F)c5)NC(=O)Cn5nc(C(F)F)c6c5C(F)(F)[C@@H]5C[C@H]65)nc5cc(-c6cccc(C(F)(F)F)n6)ccc5c4=O)ccc(Cl)c23)S(C)(=O)=O)c(OP(=O)(O)O)c1 [Compound 5, (2-(2-(4-(N-(4-Chloro-7-(2-((S)-1-(2-((3bS,4aR)-3-(difluoromethyl)-5,5-difluoro-3b,4,4a,5-tetrahydro-1H-cyclopropa[3,4]cyclopenta[1,2-c]pyrazol-1-yl)acetamido)-2-(3,5-difluorophenyl)ethyl)-4-oxo-7-(6-(trifluoromethyl)pyridin-2-yl)quinazolin-3(411)-yl)-1-methyl-1H-indazol-3-yl)methylsulfonamido)-2-methyl-4-oxobutan-2-yl)-5-methyl-3-(phosphonooxy)phenyl)acetyl)-L-aspartic acid]
pH 2 Solubility (μM) (pH 2 (medium 0.1N HCl)): 1.1 μM
pH 7 Solubility (μM) (pH 7 (medium 1×PBS buffer pH 7.4)): 76 μM
